According to ChEMBL document CHEMBL1201862, “PubChem BioAssay data set” (2004):
Activity calls are given as the source filed them.

Assays:
[1] = target: ATP-dependent translocase ABCB1 (Homo sapiens, UniProt P08183); assay: P-gp JC-1 efflux blockade concentration-response – Jurkat-DNR cells, flow cytometry, set 2, dose response (AID 504569); type: functional; details: read-out: EC50_MICROM_;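 note: potency of pump inhibitors that raise cellular JC-1 green fluorescence up to the nicardipine level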
Chain of ATP-dependent translocase ABCB1 (P08183 whole entry): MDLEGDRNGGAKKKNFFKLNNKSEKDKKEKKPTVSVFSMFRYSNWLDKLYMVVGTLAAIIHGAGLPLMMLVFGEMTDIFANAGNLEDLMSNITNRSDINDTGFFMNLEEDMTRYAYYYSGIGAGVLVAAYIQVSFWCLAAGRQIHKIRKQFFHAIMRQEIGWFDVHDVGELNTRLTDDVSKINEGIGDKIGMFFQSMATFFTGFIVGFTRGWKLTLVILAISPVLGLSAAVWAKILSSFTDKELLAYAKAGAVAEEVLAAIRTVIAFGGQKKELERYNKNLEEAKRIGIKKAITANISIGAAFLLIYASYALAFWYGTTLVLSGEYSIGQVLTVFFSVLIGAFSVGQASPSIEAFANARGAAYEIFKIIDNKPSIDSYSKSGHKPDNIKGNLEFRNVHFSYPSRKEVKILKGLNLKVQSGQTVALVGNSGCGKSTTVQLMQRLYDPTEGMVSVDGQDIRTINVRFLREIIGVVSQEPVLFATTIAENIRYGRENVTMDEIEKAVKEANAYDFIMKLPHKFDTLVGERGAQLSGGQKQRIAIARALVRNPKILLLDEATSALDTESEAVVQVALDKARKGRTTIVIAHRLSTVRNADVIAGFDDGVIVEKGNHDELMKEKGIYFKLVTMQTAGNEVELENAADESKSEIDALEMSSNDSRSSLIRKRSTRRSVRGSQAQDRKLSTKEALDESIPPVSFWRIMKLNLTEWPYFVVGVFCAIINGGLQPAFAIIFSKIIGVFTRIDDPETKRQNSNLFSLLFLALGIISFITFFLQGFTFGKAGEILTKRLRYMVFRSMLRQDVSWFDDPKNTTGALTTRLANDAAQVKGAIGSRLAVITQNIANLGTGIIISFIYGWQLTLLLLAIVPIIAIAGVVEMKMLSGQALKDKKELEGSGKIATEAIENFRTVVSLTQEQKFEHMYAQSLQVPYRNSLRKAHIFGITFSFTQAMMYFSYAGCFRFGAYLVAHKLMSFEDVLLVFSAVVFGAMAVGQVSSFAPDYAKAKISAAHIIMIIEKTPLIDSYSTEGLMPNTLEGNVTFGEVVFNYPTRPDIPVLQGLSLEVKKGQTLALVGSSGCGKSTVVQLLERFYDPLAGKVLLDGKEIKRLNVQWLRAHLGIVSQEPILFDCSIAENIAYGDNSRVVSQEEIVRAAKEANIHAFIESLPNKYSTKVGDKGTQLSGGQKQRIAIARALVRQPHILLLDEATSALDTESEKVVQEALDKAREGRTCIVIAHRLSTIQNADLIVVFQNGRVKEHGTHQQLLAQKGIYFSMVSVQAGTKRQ

H9c2 = assay: cells; type: functional, cell-based; details: Rattus norvegicus, H9c2, Myocardium;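 note: confirmatory concentration-response retest of ultra-high-throughput screening hits for modulation of myocardial damage; cell death induced by hydrogen peroxide oxidative stress; compound pretreatment for 60 min then peroxide exposure for 2 h; potency is for protecting the cells against peroxide damage rather than for killing them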
[2] = nonselective StAR promoter luciferase inhibitors – cell-based, luminescence, luciferase reporter, counter-screen for LRH-1 inverse agonist project, dose response (AID 651969); type: functional
Steroidogenic factor 1 = Steroidogenic factor 1 (Homo sapiens, UniProt Q13285); assay: Counterscreen for inverse agonists of the liver receptor homolog-1 (LRH-1; NR5A2): Luminescence-based cell-based high throughput dose response assay to identify inverse agonists of the Steroidogenic Factor 1 Nuclear Receptor (SF1; NR5A1).; type: functional
Chain of Steroidogenic factor 1 (Q13285 whole entry): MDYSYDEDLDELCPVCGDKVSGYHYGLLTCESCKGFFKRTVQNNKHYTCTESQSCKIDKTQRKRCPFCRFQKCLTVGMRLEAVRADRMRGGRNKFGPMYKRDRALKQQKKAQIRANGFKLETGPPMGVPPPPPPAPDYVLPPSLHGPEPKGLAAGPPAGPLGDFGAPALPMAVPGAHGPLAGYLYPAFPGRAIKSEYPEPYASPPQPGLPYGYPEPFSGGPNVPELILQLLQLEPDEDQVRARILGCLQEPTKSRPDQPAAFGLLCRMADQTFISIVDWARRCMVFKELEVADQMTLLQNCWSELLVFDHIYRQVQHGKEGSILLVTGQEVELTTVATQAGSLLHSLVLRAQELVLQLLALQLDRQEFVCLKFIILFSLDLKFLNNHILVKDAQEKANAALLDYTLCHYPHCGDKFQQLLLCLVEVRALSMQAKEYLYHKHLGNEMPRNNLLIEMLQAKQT

[3] = target: Nuclear receptor subfamily 5 group A member 2 (Homo sapiens, UniProt O00482); type: functional, cell-based;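 note: HEK293T cells transfected with LRH-1 and a StAR promoter luciferase reporter; potency for inhibitors that lower LRH-1 driven reporter light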
Chain of Nuclear receptor subfamily 5 group A member 2 (O00482 whole entry): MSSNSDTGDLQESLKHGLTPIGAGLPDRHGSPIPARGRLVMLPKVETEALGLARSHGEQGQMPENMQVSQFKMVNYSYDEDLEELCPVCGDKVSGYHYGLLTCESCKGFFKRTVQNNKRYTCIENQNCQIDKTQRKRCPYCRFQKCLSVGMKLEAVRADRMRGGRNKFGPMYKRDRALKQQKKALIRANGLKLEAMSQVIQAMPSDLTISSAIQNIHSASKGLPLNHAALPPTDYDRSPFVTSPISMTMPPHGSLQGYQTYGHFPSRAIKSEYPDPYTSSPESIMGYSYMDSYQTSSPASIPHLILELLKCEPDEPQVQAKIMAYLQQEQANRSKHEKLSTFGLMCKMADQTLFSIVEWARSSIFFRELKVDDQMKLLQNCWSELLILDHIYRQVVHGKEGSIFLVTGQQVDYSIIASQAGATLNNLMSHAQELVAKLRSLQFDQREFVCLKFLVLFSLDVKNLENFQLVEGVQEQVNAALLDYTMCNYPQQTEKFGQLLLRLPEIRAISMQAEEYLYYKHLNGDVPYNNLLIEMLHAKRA

PglD = PglD (Campylobacter jejuni, UniProt O86157); assay: inhibition of C. jejuni PglD N-acetyltransferase – biochemical, DTNB absorbance, cherry-picked samples, set 2, dose response (AID 624257); type: functional
Chain of PglD (O86157 whole entry): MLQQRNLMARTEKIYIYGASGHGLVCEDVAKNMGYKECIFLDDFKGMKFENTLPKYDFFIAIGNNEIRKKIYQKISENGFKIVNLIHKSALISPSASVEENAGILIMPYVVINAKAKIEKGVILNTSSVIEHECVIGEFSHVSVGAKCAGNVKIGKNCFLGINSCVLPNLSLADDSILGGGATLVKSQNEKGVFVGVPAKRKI

[4] = target: T1, Protein disulfide-isomerase (Homo sapiens, UniProt P07237); assay: inhibition of PDI-driven insulin aggregation – biochemical, turbidity, absorbance, cherry-picked samples, dose response (AID 602350); type: functional
T1 sequence (P07237 whole entry): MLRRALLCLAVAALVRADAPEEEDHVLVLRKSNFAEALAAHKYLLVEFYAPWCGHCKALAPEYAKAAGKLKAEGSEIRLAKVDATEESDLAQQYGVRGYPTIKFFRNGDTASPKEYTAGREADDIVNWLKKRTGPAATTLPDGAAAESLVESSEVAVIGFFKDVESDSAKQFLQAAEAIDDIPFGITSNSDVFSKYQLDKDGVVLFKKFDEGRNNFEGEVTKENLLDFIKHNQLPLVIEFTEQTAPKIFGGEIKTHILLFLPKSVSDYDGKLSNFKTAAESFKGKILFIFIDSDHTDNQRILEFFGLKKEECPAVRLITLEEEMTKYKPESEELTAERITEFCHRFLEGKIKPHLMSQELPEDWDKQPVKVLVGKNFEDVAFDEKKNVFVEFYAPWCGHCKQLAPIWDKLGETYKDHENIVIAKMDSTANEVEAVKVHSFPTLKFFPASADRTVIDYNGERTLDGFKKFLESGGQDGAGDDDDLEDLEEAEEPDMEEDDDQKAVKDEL

[5] = target: T1, Protein disulfide-isomerase; assay: inhibition of PDI-mediated insulin reduction – biochemical, turbidity, absorbance, cherry-picked samples, set 2, dose response (AID 624274); type: functional
[6] = blockers of HIV-1 envelope-mediated cell-cell fusion – cherry-pick, dose response (AID 652057); type: functional, cell-based
HEK293 [7] = assay: cells; type: functional, cell-based; details: Homo sapiens
HEK293 [8] = assay: inhibition of NOD1-driven NF-kB reporter – cell-based, luminescence, uHTS, primary screen (AID 1578); type: functional; details: Homo sapiens
HEK293 [9] = assay: cells; type: functional, cell-based; details: Homo sapiens; remark: listed apart in the source
[10] = HIV-1 AD8 envelope cell-cell fusion blockers – cherry-pick, dose response (AID 652062); type: functional, cell-based;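 note: luciferase signal from cell-cell fusion driven by HIV-1 clade B AD8 Env; potency is for inhibitors of fusion seen as a drop in luminescence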
Interleukin-8 = target: T2, Interleukin-8 (Homo sapiens, UniProt P10145); assay: Dose Response confirmation of uHTS small molecule hits for cystic fibrosis induced NFkb Inhibitors in a PAF-induced IL8 counterscreen.; type: functional; details: read-out: IC50_Mean
T2 sequence (P10145 whole entry): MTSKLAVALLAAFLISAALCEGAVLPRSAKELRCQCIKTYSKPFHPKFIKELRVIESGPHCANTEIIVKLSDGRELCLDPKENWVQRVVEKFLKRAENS

[11] = blockers of HIV-1 ZM109 envelope-driven cell-cell fusion – HeLa effector, CEM target cells, luciferase, cherry-pick, dose response (AID 652058); type: functional, cell-based;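 note: luciferase signal from HIV-1 Env mediated cell-cell fusion of effector and target cells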
HEK293 [12] = assay: NOD2 signaling inhibitors in MDP-stimulated cells, cell-based, uHTS, luminescence (AID 2001); type: functional; details: Homo sapiens
[13] = target: Nucleotide-binding oligomerization domain-containing protein 2 (Homo sapiens, UniProt Q9HC29); assay: inhibition of NOD2-driven NF-kB reporter – cell-based, luminescence, uHTS, HEK293 (AID 1566); type: functional
Chain of Nucleotide-binding oligomerization domain-containing protein 2 (Q9HC29 whole entry, the tested form may be a part): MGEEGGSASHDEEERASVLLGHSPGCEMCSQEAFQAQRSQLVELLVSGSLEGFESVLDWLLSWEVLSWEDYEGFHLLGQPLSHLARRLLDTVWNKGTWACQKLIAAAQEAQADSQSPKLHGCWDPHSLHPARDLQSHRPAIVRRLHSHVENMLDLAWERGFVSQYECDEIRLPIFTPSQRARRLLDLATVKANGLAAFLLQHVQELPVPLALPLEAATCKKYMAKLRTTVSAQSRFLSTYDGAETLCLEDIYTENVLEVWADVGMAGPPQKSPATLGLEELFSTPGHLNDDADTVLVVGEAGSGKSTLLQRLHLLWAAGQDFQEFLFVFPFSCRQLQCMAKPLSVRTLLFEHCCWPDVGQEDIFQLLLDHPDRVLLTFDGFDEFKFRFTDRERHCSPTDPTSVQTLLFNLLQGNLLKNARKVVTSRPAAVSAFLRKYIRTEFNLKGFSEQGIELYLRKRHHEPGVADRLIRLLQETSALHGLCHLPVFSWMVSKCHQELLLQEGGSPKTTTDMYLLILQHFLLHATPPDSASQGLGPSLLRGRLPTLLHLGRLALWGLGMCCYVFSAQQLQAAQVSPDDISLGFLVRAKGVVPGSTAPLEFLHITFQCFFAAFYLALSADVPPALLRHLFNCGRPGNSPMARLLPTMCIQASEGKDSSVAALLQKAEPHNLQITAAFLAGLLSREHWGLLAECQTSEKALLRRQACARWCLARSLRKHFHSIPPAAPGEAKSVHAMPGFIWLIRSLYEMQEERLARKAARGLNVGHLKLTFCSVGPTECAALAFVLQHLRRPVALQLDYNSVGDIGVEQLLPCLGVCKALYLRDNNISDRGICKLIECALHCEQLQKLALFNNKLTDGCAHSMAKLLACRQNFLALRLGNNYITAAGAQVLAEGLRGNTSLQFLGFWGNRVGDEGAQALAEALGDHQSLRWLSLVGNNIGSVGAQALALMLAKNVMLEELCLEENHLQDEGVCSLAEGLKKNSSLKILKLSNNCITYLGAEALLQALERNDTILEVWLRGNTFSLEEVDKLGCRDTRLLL

HEK293 [14] = assay: cells; type: functional, cell-based; details: Homo sapiens; remark: listed apart in the source
[15] = off-target signal loss in HeLa-CEM21 co-culture – HeLa F-luc CTL cells, cherry-picked, counter-screen for HIV-1 Env fusion inhibitor project, dose response (AID 652040); type: functional, cell-based;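 note: potency for signal decrease marking cytotoxic or nonspecific inhibition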
[16] = mammalian cell viability loss – Alamar Blue, dry powder, cytotoxicity control for antifungal single agent project, dose response (AID 602188); type: functional, cell-based

For COc1ccc(-c2cc3nc(-c4ccccc4)cc(N4CCN(C(=O)c5ccoc5)CC4)n3n2)cc1, the EC50 [1] was 0.94 µM (active) and the IC50 (H9c2) was > 79 µM (inactive).

In the case of COc1cc(C(=O)Nc2ccccc2N2CCN(S(C)(=O)=O)CC2)cc(OC)c1OC, the IC50 [2] is reported as 35.9 µM (inactive), the IC50 (Steroidogenic factor 1) is reported as 7.65 µM (active) and the IC50 [3] is reported as 14.6 µM (inactive).

In the case of Cc1c(C(=O)O)sc2nc(/C=C/c3cccc(O)c3)nc(O)c12, the AC50 (PglD) is reported as 4.58 µM (active).

In the case of CC1Cc2ccccc2N1C(=O)CSc1nnc2sc3ccccc3n12 (stereo not given), the AC50 [4] is reported as < 0.009 µM (active) and the AC50 [5] is reported as 0.009 µM (active).

In the case of Cn1c(=O)c2c(nc(Oc3ccc4ccccc4c3)n2C)n(C)c1=O, the AC50 [6] is reported as 11.6 µM (active), the IC50 (HEK293 [7]) is reported as > 20 µM (inactive) and the EC50 (HEK293 [8]) is reported as 6.6 µM (active). For the same molecule, the IC50 (HEK293 [9]) was 3.32 µM (active), the AC50 [10] was 2.05 µM (active) and the IC50 (Interleukin-8) was 14 µM (inactive). The AC50 [11] was 40.2 µM (active), the IC50 (HEK293 [12]) was 3.88 µM (active) and the EC50 [13] was 4.28 µM (active). The IC50 (HEK293 [14]) was > 20 µM (inactive) and the AC50 [15] was 18.4 µM (active).

In the case of Oc1c(CN2CCN(c3ccccc3)CC2)cc(Cl)c2cccnc12, the AC50 [16] is reported as 0.964 µM (active).
